Results reported in patent US20110124564A1, “NUCLEOLIN-BINDING PEPTIDES, NUCLEOLIN- BINDING LYTIC PEPTIDES, FUSION CONSTRUCTS AND METHODS OF MAKING AND USING SAME” (ESPERANCE PHARMACEUTICALS, INC., published 2011).
Where two headings read alike, the source gives them in different places. Residues, ends and D or L forms follow the SMILES beside them.

Columns and labels:
[1] = In vivo tolerability, repeat dose, nude mice; set-up: species or system mouse; settings: 5 consecutive days; for Survival [%] Day 1 / Survival [%] Day 2* / Survival [%] Day 3 / Survival [%] Day 4 / Survival [%] Day 5: BalbC/nude mice
Method: Body weight, blood chemistry and blood cell counts were measured. […] Blood parameters for CBC and serum chemistry were normal in treated mice of both groups.

PC-3 (Prostate) = type: cell-based, human
Method: (§1) EP-302 was freshly dissolved in saline and added into cancer cell seeded multi-well plates at increasing concentrations of 0, 0.001, 0.01, 0.1, 1, 2, 5, 10 and 100 μM. Incubations were conducted for 6 h or 24 h at 37° C. Cell viability was determined using formazan conversion assays (MTT assays). Controls were treated with USP saline or 0.1% TritonX-100™ as reference for 0 and 100% cell death, respectively. Cytotoxicity was evaluated as an IC50 value derived for EP-302 in each cell line.

MiaPaCa (Pancreas) = type: cell-based, human
Method: as §1

MDA-MB-435S (Breast) = type: cell-based, human
Method: as §1

[2] = system: HL60 (Acute Myeloid Leukemia); type: cell-based, human; settings: 24 h
Method: as §1

[3] = system: MDA-MB-435S breast cancer cells; type: cell-based, human; settings: 4 h
Method: Twelve different fusion constructs were analyzed for anti-cancer activity in vitro against MDA-MB-435S breast cancer cells and for hemolytic activity in vitro to human red blood cells. Fusion constructs of the following sequence were tested:
as §1, with “The peptide conjugates were” for “EP-302 was”, “4” for “6 h or 24”, “value.” for “value derived for EP-302 in each cell line.”

human red blood cells = experiment: Hemolytic activity; type: cell-based
Method: Hemolytic activity was studied by incubating the fusion constructs with human red blood cells at concentrations of 0.01, 0.1, 1, 10 and 50 μM for 2 hours. Saline and 0.1% Triton served as controls.
Hemolytic activity of the compounds was studied by incubating EP-301 and EP-302 with human red blood cells at concentrations of 0.01, 0.1, 1, 10 and 50 μM for 2 hours.

OVCAR-3 (Ovary) = type: cell-based; settings: 6 h
Method: as §1

[4] = system: NIH-3T3 (mouse fibroblast cells); type: cell-based; settings: 24 h
Method: as §1

MCF-7 (Breast) = type: cell-based
Method: as §1

HT 116(Colon) = type: cell-based
Method: as §1

SKOV-3 (Ovary) = type: cell-based
Method: as §1

DU145 (Prostate) = type: cell-based
Method: as §1

HT 29 (Colon) = type: cell-based; settings: 6 h
Method: as §1

A549 (Lung) = type: cell-based
Method: as §1

[5] = system: MV4-11(Acute Myeloid Leukemia); type: cell-based; settings: 24 h
Method: as §1

LoVo (Colon) = type: cell-based; settings: 6 h
Method: as §1

[6] = system: K562 (Chronic Myeloid Leukemia); type: cell-based; settings: 24 h
Method: as §1

CHO (Hamster Ovary) = type: cell-based
Method: as §1

Daudi (NHL) = type: cell-based
Method: as §1

[7] = system: MCF-10A (normal breast cells); type: cell-based; settings: 24 h
Method: as §1

MDA-MB-231 (Breast) = type: cell-based
Method: as §1

[8] = system: MDA-MB-435S breast cancer cells; type: cell-based, human; settings: 6 h
Method: EP-301 and EP-302 were analyzed for anti-cancer activity in vitro in a time course experiment against MDA-MB-435S breast cancer cells. EP-301 and EP-302 were freshly dissolved in saline and added into cancer cell seeded multi-well plates at increasing concentrations of 0, 0.001, 0.01, 0.1, 1, 2, 5, 10 and 100 μM. Incubations were conducted for 0.25, 0.5, 1, 2, 4, 6 h or 24 h at 37° C. Cell viability was determined using formazan conversion assays (MTT assays). Controls were treated with USP saline or 0.1% TritonX-100™ as reference for 0 and 100% cell death, respectively. Cytotoxicity was evaluated as an IC50 value derived for EP-301 and EP-302 at each time point.

[9] = 5 and 10 mg/kg i.v., female nude mice

## CC(C)C[C@H](NC(=O)[C@H](CCCNC(=N)N)NC(=O)[C@H](C)NC(=O)[C@H](CO)NC(=O)[C@H](CCCNC(=N)N)NC(=O)[C@H](CCCNC(=N)N)NC(=O)[C@H](CCC(N)=O)NC(=O)[C@H](CC(C)C)NC(=O)[C@H](CCCNC(=N)N)NC(=O)[C@H](C)NC(=O)[C@H](CCCNC(=N)N)NC(=O)[C@H](CCCCN)NC(=O)[C@H](C)NC(=O)[C@H](Cc1ccccc1)NC(=O)[C@H](CCCCN)NC(=O)[C@H](CCCCN)NC(=O)[C@H](C)NC(=O)[C@H](Cc1ccccc1)NC(=O)[C@H](CCCCN)NC(=O)[C@H](C)NC(=O)[C@H](Cc1ccccc1)NC(=O)[C@H](CCCCN)NC(=O)[C@H](CCCCN)NC(=O)[C@H](C)NC(=O)[C@H](Cc1ccccc1)NC(=O)[C@H](CCCCN)NC(=O)[C@H](C)NC(=O)[C@H](Cc1ccccc1)NC(=O)[C@@H](N)CCCCN)C(=O)N[C@@H](CO)C(=O)N[C@@H](C)C(=O)N[C@@H](CCCCN)C(=O)O [EP-302] (H-KFAKFAKKFAKFAKKFAKRARLQRRSARLSAK-OH)
[1]; 5 mg/kg i.v.
  Survival [%] Day 1: 100 (5/5) %
  Survival [%] Day 2*: 100 (5/5) %
  Survival [%] Day 3: 100 (5/5) %
  Survival [%] Day 4: 100 (5/5) %
  Survival [%] Day 5: 100 (5/5) %
[1]; 10 mg/kg i.v.
  Survival [%] Day 1: 100 (5/5) %
  Survival [%] Day 2*: 100 (5/5) %
  Survival [%] Day 3: 100 (5/5) %
  Survival [%] Day 4: 100 (5/5) %
  Survival [%] Day 5: 100 (5/5) %
[1]; [9]
  Blood parameters for CBC and serum chemistry: normal
  Body weight: remained stable
  Signs of toxicity / tolerability: no signs of toxicity
PC-3 (Prostate); 6 h
  IC50: 3.3 ± 0.3 µM
PC-3 (Prostate); 24 h
  IC50: 3.2 ± 0.8 µM
MiaPaCa (Pancreas); 6 h
  IC50: 2.1 ± 0.2 µM
MiaPaCa (Pancreas); 24 h
  IC50: 1.9 ± 0.1 µM
MDA-MB-435S (Breast); 6 h
  IC50: 1.4 ± 0.09 µM
MDA-MB-435S (Breast); 24 h
  IC50: 1.7 ± 0.2 µM
[2]
  IC50: 0.5 µM
[3]
  IC50: 0.9 ± 0.05 µM
Human red blood cells
  HA50: Not hemolytic
OVCAR-3 (Ovary)
  IC50: 5.2 ± 0.3 µM
[4]
  IC50: 53 µM
MCF-7 (Breast); 6 h
  IC50: 5.5 ± 0.4 µM
MCF-7 (Breast); 24 h
  IC50: 6.4 ± 0.9 µM
HT 116(Colon); 6 h
  IC50: 6.7 ± 0.9 µM
HT 116(Colon); 24 h
  IC50: 4.8 ± 1.1 µM
SKOV-3 (Ovary); 6 h
  IC50: 5.1 ± 0.2 µM
SKOV-3 (Ovary); 24 h
  IC50: 5.2 ± 0.9 µM
DU145 (Prostate); 6 h
  IC50: 3.1 ± 0.02 µM
DU145 (Prostate); 24 h
  IC50: 5.1 ± 0.1 µM
HT 29 (Colon)
  IC50: 45.8 ± 0.4 µM
A549 (Lung); 6 h
  IC50: 4.3 ± 0.6 µM
A549 (Lung); 24 h
  IC50: 2.4 ± 0.08 µM
[5]
  IC50: 0.5 µM
LoVo (Colon)
  IC50: 14.1 ± 0.5 µM
[6]
  IC50: 2.8 µM
CHO (Hamster Ovary); 6 h
  IC50: 3.1 ± 0.9 µM
CHO (Hamster Ovary); 24 h
  IC50: 3.7 ± 0.2 µM
Daudi (NHL); 6 h
  IC50: 3.2 ± 0.4 µM
Daudi (NHL); 24 h
  IC50: 2.5 ± 0.05 µM
[7]
  IC50: 68 µM
MDA-MB-231 (Breast); 6 h
  IC50: 4.6 ± 0.9 µM
MDA-MB-231 (Breast); 24 h
  IC50: 3.6 ± 0.4 µM
[8]
  IC50: 2.3 µM
